Reference: ChEMBL document CHEMBL3431459, “Roche carnitine palmitoyltransferase modulator screening data (supplementary data associated with the publication CHEMBL2216752)”
pIC50: −log10 of the molar value. In brackets after ≈: the same amount, converted by molar mass.

Key:
[1] = molecular target: T1, Carnitine O-palmitoyltransferase 1, muscle isoform (Homo sapiens, UniProt Q92523); test: SUPPLEMENTARY: Inhibition of Carnitine palmitoyltransferase 1, muscle isoform; parameters: species or system Muscle tissue
T1 sequence (Q92523 whole entry): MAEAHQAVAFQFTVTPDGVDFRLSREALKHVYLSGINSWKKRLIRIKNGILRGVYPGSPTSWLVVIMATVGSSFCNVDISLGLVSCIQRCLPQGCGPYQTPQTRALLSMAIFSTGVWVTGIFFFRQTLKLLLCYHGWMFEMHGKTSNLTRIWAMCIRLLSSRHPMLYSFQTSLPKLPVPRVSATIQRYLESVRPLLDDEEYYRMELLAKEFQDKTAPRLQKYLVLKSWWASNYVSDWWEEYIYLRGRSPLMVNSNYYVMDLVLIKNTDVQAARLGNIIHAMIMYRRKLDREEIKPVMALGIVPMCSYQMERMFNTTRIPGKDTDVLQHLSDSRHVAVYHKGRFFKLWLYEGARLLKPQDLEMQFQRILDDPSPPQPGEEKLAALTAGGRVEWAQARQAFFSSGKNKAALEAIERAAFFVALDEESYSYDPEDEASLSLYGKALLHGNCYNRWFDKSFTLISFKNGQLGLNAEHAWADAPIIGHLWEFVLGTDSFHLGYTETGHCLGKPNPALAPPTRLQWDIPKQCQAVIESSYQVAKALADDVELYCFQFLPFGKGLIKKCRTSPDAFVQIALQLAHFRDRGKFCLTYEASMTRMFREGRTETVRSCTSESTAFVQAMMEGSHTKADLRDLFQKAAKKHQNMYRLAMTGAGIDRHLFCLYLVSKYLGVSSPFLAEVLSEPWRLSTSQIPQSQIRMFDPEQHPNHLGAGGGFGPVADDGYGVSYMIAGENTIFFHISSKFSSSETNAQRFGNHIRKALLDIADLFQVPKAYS

[2] = molecular target: T2, Carnitine O-palmitoyltransferase 2, mitochondrial (Homo sapiens, UniProt P23786); test: (§1) SUPPLEMENTARY: Inhibition of Carnitine palmitoyltransferase 2
T2 sequence (P23786 whole entry): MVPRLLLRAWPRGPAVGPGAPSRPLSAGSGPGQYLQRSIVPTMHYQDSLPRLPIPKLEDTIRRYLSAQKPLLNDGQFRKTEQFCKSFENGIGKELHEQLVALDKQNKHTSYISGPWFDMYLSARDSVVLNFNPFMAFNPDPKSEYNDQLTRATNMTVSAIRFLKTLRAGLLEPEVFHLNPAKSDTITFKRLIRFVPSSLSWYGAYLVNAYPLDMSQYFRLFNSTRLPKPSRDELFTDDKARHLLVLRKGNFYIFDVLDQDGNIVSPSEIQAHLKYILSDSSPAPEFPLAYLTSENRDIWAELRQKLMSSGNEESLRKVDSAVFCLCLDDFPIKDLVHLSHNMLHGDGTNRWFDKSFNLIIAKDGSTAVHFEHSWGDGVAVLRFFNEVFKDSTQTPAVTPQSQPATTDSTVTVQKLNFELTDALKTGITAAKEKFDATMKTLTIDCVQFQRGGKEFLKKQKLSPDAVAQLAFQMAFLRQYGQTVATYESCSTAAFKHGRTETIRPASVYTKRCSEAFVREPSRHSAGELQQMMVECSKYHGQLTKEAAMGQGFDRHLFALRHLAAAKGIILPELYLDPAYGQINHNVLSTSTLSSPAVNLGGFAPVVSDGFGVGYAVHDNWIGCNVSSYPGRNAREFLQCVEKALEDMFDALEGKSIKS

[3] = molecular target: T3, Carnitine O-palmitoyltransferase 2, mitochondrial (Rattus norvegicus, UniProt P18886); test: as §1
T3 sequence (P18886 whole entry): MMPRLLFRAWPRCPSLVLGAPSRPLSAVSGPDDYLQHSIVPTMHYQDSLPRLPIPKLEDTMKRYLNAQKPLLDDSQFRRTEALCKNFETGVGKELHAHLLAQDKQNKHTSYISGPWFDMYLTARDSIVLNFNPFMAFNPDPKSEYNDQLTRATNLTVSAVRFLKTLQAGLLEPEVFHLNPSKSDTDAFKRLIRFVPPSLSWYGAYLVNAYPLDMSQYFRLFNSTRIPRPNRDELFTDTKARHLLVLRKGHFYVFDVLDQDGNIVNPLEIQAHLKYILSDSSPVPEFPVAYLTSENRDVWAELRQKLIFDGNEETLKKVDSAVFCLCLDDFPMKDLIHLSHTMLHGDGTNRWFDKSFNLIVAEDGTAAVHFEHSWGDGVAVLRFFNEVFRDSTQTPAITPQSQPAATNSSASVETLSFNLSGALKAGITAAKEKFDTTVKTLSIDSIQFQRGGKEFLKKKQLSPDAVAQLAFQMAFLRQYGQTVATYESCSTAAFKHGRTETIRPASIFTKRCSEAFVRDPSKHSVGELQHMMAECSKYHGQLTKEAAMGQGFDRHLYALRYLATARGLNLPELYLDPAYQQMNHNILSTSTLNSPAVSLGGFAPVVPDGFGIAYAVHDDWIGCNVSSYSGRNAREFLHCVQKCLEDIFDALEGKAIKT

[4] = molecular target: T4, Carnitine O-palmitoyltransferase 1, liver isoform (Homo sapiens, UniProt P50416); test: (§2) SUPPLEMENTARY: Inhibition of Carnitine palmitoyltransferase 1, liver isoform
T4 sequence (P50416 whole entry): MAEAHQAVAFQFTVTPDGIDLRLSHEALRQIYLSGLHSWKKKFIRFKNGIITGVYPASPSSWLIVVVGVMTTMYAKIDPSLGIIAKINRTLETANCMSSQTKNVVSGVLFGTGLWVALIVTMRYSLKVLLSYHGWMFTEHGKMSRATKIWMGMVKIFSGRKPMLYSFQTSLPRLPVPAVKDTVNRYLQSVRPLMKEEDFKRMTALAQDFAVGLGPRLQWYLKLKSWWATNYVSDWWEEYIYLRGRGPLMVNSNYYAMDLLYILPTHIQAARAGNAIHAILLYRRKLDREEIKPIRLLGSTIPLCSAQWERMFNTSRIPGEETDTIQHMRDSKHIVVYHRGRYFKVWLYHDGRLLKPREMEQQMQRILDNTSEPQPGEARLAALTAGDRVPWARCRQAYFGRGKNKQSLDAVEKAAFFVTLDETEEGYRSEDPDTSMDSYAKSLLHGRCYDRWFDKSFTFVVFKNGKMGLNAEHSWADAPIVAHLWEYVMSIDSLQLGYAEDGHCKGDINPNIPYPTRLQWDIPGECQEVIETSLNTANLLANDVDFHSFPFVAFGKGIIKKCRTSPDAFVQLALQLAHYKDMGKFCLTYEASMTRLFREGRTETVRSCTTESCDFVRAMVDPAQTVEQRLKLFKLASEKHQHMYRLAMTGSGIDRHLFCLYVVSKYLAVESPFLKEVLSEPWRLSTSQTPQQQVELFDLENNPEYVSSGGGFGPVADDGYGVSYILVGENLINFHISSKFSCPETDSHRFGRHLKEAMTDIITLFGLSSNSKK

[5] = molecular target: T5, Carnitine O-palmitoyltransferase 1, liver isoform (Rattus norvegicus, UniProt P32198); test: as §2
T5 sequence (P32198 whole entry): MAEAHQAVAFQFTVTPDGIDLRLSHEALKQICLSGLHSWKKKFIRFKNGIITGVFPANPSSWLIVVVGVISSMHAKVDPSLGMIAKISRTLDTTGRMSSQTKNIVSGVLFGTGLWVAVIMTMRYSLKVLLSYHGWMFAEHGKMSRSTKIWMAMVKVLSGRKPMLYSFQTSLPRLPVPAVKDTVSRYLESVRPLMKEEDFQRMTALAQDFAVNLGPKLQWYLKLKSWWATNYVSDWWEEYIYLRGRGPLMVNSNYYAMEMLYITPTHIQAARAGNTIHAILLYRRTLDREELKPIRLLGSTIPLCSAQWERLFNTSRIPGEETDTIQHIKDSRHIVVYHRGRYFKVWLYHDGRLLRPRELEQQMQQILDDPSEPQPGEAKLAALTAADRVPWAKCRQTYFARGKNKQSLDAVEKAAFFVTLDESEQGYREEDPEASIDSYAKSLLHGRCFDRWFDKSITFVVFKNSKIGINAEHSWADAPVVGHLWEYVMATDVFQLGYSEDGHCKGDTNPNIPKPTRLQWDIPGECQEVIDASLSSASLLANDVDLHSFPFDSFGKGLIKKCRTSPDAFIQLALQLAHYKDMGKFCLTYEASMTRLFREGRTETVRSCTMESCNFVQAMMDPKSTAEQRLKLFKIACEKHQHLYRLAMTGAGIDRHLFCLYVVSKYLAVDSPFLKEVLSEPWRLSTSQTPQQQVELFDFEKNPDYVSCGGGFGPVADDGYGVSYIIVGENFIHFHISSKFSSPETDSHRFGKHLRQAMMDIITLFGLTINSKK

[6] = SUPPLEMENTARY: Lyophilisation Solubility Assay (LYSA); format: physicochemical; settings: read-out: Kinetic_solubility
[7] = SUPPLEMENTARY: Lipophilicity (log D) Determination by high-throughput shake-flask; format: physicochemical; settings: octanol/water
[8] = SUPPLEMENTARY: PAMPA permeability assay; format: physicochemical; settings: read-out: Permeability

COc1ccc(Cl)cc1S(=O)(=O)N1CCOc2ncc(C(=O)Nc3ccccc3)cc21
pIC50 [1]: < 4.00
pIC50 [2]: < 4.00
pIC50 [3]: < 4.00
pIC50 [4]: 6.57
pIC50 [5]: 6.62
solubility kinetic [6]: 4 µg/mL (≈ 8.7 µM)
logD [7]: 3.31
Papp [8]: 4.38 ×10⁻⁶ cm/s

O=C(NCCO)c1cccc(-c2n[nH]c([C@H]3CCCCN3C(=O)COc3ccccc3)n2)c1
pIC50 [1]: < 4.00
pIC50 [2]: 4.52
pIC50 [3]: 4.15
pIC50 [4]: 6.62
pIC50 [5]: 6.15
solubility kinetic [6]: 138 µg/mL (≈ 307 µM)
logD [7]: 1.98
Papp [8]: 0.51 ×10⁻⁶ cm/s

O=C1Cc2cc(-c3noc(C4C5CC5CN4C(=O)COc4ccccc4)n3)ccc2N1 (centres undefined)
pIC50 [1]: 4.41
pIC50 [2]: 4.19
pIC50 [3]: 4.03
pIC50 [4]: 6.87
pIC50 [5]: 6.41
solubility kinetic [6]: 38 µg/mL (≈ 91.3 µM)
logD [7]: 2.51
Papp [8]: 5.4 ×10⁻⁶ cm/s

COc1ccc(-c2noc([C@H]3CCCCN3C(=O)C#Cc3ccccc3)n2)cc1
pIC50 [1]: < 4.00
pIC50 [2]: < 4.00
pIC50 [3]: < 4.00
pIC50 [4]: 6.54
pIC50 [5]: 6.30
solubility kinetic [6]: < 1 µg/mL
logD [7]: > 3
Papp [8]: 2.48 ×10⁻⁶ cm/s

CC(C)C(=O)Nc1cccc(-c2n[nH]c([C@H]3CCCCN3C(=O)COc3ccccc3)n2)c1
pIC50 [1]: < 4.00
pIC50 [2]: 4.44
pIC50 [3]: 4.62
pIC50 [4]: 7.14
pIC50 [5]: 6.16
solubility kinetic [6]: 29 µg/mL (≈ 64.8 µM)
logD [7]: 3.32
Papp [8]: 2.6 ×10⁻⁶ cm/s

COc1ccc(Cl)cc1S(=O)(=O)N1CCc2ccc(C(=O)Nc3ccc(C(=O)O)c(Cl)c3)cc21
pIC50 [1]: 6.12
pIC50 [2]: 6.01
pIC50 [3]: 5.47
pIC50 [4]: 6.88
pIC50 [5]: 7.03
solubility kinetic [6]: > 579 µg/mL
logD [7]: 0.26
Papp [8]: 1.2 ×10⁻⁶ cm/s

COc1ccc(Cl)cc1S(=O)(=O)N1CCc2c(C)cc(C(=O)Nc3ccc(C(=O)O)cc3)cc21
pIC50 [1]: 5.26
pIC50 [2]: 6.49
pIC50 [3]: 6.46
pIC50 [4]: 7.11
pIC50 [5]: 7.25
solubility kinetic [6]: 13 µg/mL (≈ 26 µM)
logD [7]: 2.58
Papp [8]: 2.01 ×10⁻⁶ cm/s

COc1ccc(Cl)cc1S(=O)(=O)N(c1cc(C(=O)Nc2ncc(CC(=O)O)s2)cc2c1OCO2)C(C)C
pIC50 [1]: 6.09
pIC50 [2]: 4.42
pIC50 [3]: < 4.00
pIC50 [4]: 6.79
pIC50 [5]: 6.43
solubility kinetic [6]: 109 µg/mL (≈ 192 µM)
logD [7]: 2.84
Papp [8]: 3.53 ×10⁻⁶ cm/s
